Data set [1] deals with mosquitoes. Kind of data set: test comparing acetone alone versus composition: share of available mosquitoes lured. The format is in vivo. To be noted: one test; acetone alone versus composition containing acetone, lactic acid and the fatty acid.
The nature of data set [2]: surface energy of water with added acetone. The format is physicochemical. To be noted: 5% addition of acetone to water; water alone 73 dynes/cm. From the text:
While the C3-C12 ketones used in the composition are insufficient by themselves to act as an insect attractant; they provide other valuable properties to the composition. In particular, small-chain ketones have the ability to act as surface-active agents and thus provide the composition with a more consistent droplet diameter and a lower surface energy when the liquid composition is released. For instance, a 5% addition of acetone to water can reduce water surface energy from 73 dynes/cm to 56 dynes/cm. While not wishing to be bound by this theory, it is believed that producing a composition with a consistent and smaller diameter size provides a better presentation to the antennae of the flying insects.

One compound from US20090304763A1, “Insect Attractant Composition” (priority 2006, published 2009) can be followed below.

`CC(C)=O` [acetone alone, acetone]: the “average of all available mosquitoes lured” value in data set [1] was determined as 6.7%. The compound also displayed a water surface energy in data set [2] of 56 dynes/cm.
